Experimental data: patent publication US20130137776A1, “METHOD FOR INHIBITING HISTONE GENE TRANSCRIPTION AND EXPRESSION” (CHINA MEDICAL UNIVERSITY, priority 2011, published 2013)

Key:
[1] = tested on: histone gene transcription of the HSC-3 cancer cell line; assay: Microarray analysis of gene expression in hinokitiol-treated HSC-3 cells; format: cell-based; conditions: 6.25 μM or 12.5 μM hinokitiol, 24 hours, Affymetrix Human Gene 1.0 ST microarray
Procedure: (1) Cell Culture and RNA Collection
Human oral squamous-cell carcinoma (OSCC) cell lines, such as HSC-3 (JCRB0623, Japan), was cultured. The relative culture methods can be seen in Shieh, T. M. et al., Association of expression aberrances and genetic polymorphisms of lysyl oxidase with areca-associated oral tumorigenesis. Clin Cancer Res, 2007. 13(15 Pt 1): p. 4378-85; Chen, J. C. et al., Gypenosides induced G0/G1 arrest via CHk2 and apoptosis through endoplasmic reticulum stress and mitochondria-dependent pathways in human tongue cancer SCC-4 cells. Oral Oncol, 2009. 45(3): p. 273-83; and Lin, C. C. et al., Berberine induces apoptosis in human HSC-3 oral cancer cells via simultaneous activation of the death receptor-mediated and mitochondrial pathway. Anticancer Res, 2007. 27(5A): p. 3371-8, which are entirely incorporated hereinto by reference.
Then, the HSC-3 cell lines were divided into four groups: two groups of the cells were not treated by hinokitiol (0 μM); one group of the cells was treated by 6.25 μM hinokitiol (commercially purchased from Sigma-Aldrich company); and one group of the cells was treated by 12.5 μM hinokitiol. […] The content and purity of the obtained RNA were respectively determined at wavelengths of 260 nm and 280 nm by using a micro-volume spectrophotometer (Nanodrop ND-1000, commercially purchased from Labtech. International company). […]

[2] = tested on: histone H2B and H3 gene expression in HSC-3 cell line; assay: Reverse transcription-PCR of histone H2B and H3 gene expression; format: cell-based, human; conditions: 6.25 μM, 24 hours, GAPDH internal control
Procedure: HSC-3 cell lines were cultured and respectively treated by 0 μM and 6.25 μM hinokitiol for 24 hours. Then, the cells were scratched from the cell culture dishes and collected by centrifugation. Afterwards, reverse transcription-PCR (RT-PCR) was performed. The protocols and conditions related to RT-PCR can be seen in Shieh, T. M. et al., Association of expression aberrances and genetic polymorphisms of lysyl oxidase with areca-associated oral tumorigenesis. Clin Cancer Res, 2007. 13 (15 Pt1), p. 4378-85; and Shieh, T. M. et al., Association between the polymorphisms in exon 12 of hypoxia-inducible factor-1alpha and the clinicopathological features of oral squamous cell carcinoma. Oral Oncol, 2010. 46 (9), p. e47-53, which are entirely incorporated hereinto by reference.
The gene expression level of Glyceraldehyde-3-phosphate dehydrogenase (GAPDH) was used as an internal control. The variation of the gene expression level of histone H2B and H3 in HSC3 cell lines treated by hinokitiol was compared with the control group, and the results are shown in FIG. 2. At least two independent RT-PCR experiments were performed to validate the reproducibility of the analysis.

[3] = tested on: histone H3 expression in HSC-3 cancer cell line; assay: Western blotting analysis of histone H3, HSC-3 cancer cell line; format: cell-based, human; conditions: 6.25 μM and 12.5 μM, 24 hours, actin internal control
Procedure: (§1) Normal human oral keratinocyte cell lines (OK, obtained from China Medical University Hospital, Taiwan), HSC-3 cancer cell lines, and SAS cancer cell lines (OSCC cancer cell line, obtained from the tongue tissue of a patient in National Yang Ming University, Taiwan) were cultured (the protocols related to cell culture can be seen in Lu, S. Y. et al., Ripe areca nut extract induces G1 phase arrests and senescence-associated phenotypes in normal human oral keratinocyte. Carcinogenesis, 2006. 27 (6), p. 1273-84; and Shieh, T. M. et al., Association of expression aberrances and genetic polymorphisms of lysyl oxidase with areca-associated oral tumorigenesis. Clin Cancer Res, 2007. 13 (15 Pt 1), p. 4378-85, which are entirely incorporated hereinto by reference). The cells were respectively treated by 0 μM, 6.25 μM, and 12.5 μM hinokitiol for 24 hours, and scratched from the cell culture dishes and collected by centrifugation. Then, western blotting analysis was performed (see Lu, S. Y. et al., Ripe areca nut extract induces G1 phase arrests and senescence-associated phenotypes in normal human oral keratinocyte. Carcinogenesis, 2006. 27 (6), p. 1273-84, which is entirely incorporated hereinto by reference). […]

[4] = tested on: histone H3 expression in SAS cancer cell line; assay: Western blotting analysis of histone H3, SAS cancer cell line; format: cell-based, human; conditions: 6.25 μM and 12.5 μM, 24 hours, actin internal control
Procedure: as §1

[5] = tested on: histone H3 expression in normal human oral keratinocyte cell line (OK); assay: Western blotting analysis of histone H3, normal human oral keratinocyte cell line; format: cell-based; conditions: 6.25 μM and 12.5 μM, 24 hours, actin internal control
Procedure: as §1

HSC-3 cells = assay: Cell cycle analysis by flow cytometry (PI staining); format: cell-based, human; conditions: 24 hours, 0 μM control 31.38%
Procedure: HSC-3 cells (2×10^5/4 ml) were respectively treated by 0 μM, 3.12 μM, and 6.25 μM hinokitiol for 24 hours, washed by an ice-cold PBS buffer solution twice, and fixed in 70% ice-cold ethanol at 4° C. for 4 hours. Then, the cells were stained by propidium iodide (PI), and a cell cycle analysis was performed by using a BD FACSAria flow cytometer (commercially purchased from Becton Dickinson, Germany). The obtained data was analyzed by MULTICycle Software (commercially purchased from Coulter company, U.S.A.).

[6] = compound of formula (I) and its salts; cited from Imai et al. 2006 and Ema et al. 2004 (rats); cited from earlier work

CC(C)c1cccc(O)c(=O)c1 [hinokitiol]
expression of histone genes (H1d, H3g, H3j, H3a, H3h, H2bm, H2bg, H3l, H2bf, H2a) vs untreated control [1]: decreased by above two-fold | gene expression level of histone H2B [2]: decreased | gene expression level of histone H3 [2]: decreased | expression level of histone H3 [3]: significantly decreased | expression level of histone H3 [4]: significantly decreased | expression level of histone H3 [5]: not affected | proportion of the cells in the synthesis phase (S phase) (HSC-3 cells; 3.125 μM hinokitiol): 41.19% | proportion of the cells in the synthesis phase (S phase) (HSC-3 cells; 6.25 μM hinokitiol): 43.89% | biological toxicity [6]: low biological toxicity
